According to the Kinase Knowledgebase extract (Sharma et al. 2016):
“And” between values parts separate entries of the source, which are not always exact repeats. Equal values may be shown once.

Each molecule was assayed against PIK3CA (human) (UniProt P42336) (assay: Inhibition of PIK3CA Kinase Activity).
Chain of PIK3CA (human) (P42336 whole entry, looked up): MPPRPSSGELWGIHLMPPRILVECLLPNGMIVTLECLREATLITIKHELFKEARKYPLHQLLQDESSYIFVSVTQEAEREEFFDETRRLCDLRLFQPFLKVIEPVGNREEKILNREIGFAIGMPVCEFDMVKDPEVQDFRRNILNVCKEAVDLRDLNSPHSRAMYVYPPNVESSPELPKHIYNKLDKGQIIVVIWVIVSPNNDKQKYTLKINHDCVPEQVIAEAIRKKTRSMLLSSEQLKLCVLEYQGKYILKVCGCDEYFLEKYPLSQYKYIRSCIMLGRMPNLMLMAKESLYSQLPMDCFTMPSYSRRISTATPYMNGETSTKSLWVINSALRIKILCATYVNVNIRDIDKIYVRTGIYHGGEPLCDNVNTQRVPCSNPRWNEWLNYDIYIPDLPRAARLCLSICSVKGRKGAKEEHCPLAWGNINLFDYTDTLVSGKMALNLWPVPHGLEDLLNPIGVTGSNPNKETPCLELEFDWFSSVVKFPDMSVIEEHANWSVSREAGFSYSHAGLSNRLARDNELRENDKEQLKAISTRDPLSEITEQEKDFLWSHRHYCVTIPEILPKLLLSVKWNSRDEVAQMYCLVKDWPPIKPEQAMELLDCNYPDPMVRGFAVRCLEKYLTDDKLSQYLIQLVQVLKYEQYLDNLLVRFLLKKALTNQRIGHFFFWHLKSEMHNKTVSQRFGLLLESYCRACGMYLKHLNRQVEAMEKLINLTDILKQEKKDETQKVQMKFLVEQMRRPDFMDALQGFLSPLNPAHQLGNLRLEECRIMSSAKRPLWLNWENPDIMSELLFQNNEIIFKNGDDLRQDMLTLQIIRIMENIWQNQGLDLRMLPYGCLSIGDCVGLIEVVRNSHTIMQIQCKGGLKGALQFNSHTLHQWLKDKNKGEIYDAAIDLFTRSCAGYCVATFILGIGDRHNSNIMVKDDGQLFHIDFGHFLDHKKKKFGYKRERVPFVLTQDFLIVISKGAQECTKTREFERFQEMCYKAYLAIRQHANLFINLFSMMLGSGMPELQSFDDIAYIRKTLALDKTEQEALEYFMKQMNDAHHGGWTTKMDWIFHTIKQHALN
For Cc1nc(-c2cn3c(n2)-c2cc([C@@H](C)N4CCN(C(C)(C)C)CC4)c(C)cc2OCC3)n(C(C)C)n1, the IC50 was 52.2 nM.
For Cc1nc(-c2cn3c(n2)-c2cc([C@@H](C)N4CCN(C(C)(C)CO)CC4)ncc2OCC3)n(C(C)C)n1, the IC50 was 219 nM.
Cc1nc(-c2cn3c(n2)-c2ccc(OC4(CN5CCN(C)CC5)CC4)cc2OCC3)n(C(C)C)n1 was tested, and the IC50 was 86.4 nM.
Cc1nc(-c2cn3c(n2)-c2cc(C(C)N4CCN(CC(C)(C)O)CC4)c(C)cc2OCC3)n(C(C)C)n1 (centres undefined) was tested, and the IC50 was 76.2 nM.
For Cc1nc(-c2cn3c(n2)-c2cc([C@H](C)N4CCN(C(C)(C)CO)CC4)c(F)cc2OCC3)n(C(C)C)n1, the IC50 was 422 nM.
Cc1nc(-c2cn3c(n2)-c2ccc(-c4ccnn4[C@@H]4CCCN(C(C)(C)CO)C4)cc2OCC3)n(C(C)C)n1 showed an IC50 of 10.8 nM.
With Cc1nc(-c2cn3c(n2)-c2ccc(N4CCC[C@@H]4CN4CCCC4)cc2OCC3)n(C(C)C)n1 the IC50 was 22 nM.
With Cc1cc2c(cc1-c1ccnn1C1CCN(C)CC1)OCCn1cc(-c3ncnn3C(C)C)nc1-2 the IC50 was 173 nM.
Molecule Cc1nc(-c2cn3c(n2)-c2cc([C@@H](C)N4CCN(CC(C)(C)O)CC4)c(F)cc2OCC3)n(C(C)C)n1 has an IC50 of 182 nM.
For Cc1nc(-c2cn3c(n2)-c2cc(C(C)N4CCN(C(C)(C)C)CC4)c(F)cc2OCC3)n(C(C)C)n1 (centres undefined), the IC50 was 250 nM.
Cc1nc(-c2cn3c(n2)-c2ccc(-c4cnn(C(C)C)c4CN4CCN(C)CC4)cc2OCC3)n(C(C)C)n1 was tested, and the IC50 was 112 nM.
Work on Cc1nc(-c2cn3c(n2)-c2cc([C@@H](C)N4CCN(C(C)(C)C)CC4)ncc2OCC3)n(C(C)C)n1 yielded an IC50 of 80.4 nM.
With Cc1nc(-c2cn3c(n2)-c2ccc(-c4cnn(C)c4[C@H]4CCCN(C(C)C)C4)cc2OCC3)n(C(C)C)n1 the IC50 was 20.7 nM.
Cc1nc(-c2cn3c(n2)-c2ccc(OC4CC(C)CN(C(C)C)C4)cc2OCC3)n(C(C)C)n1 (centres undefined) was tested, and the IC50 was 32.8 nM.
Molecule Cc1nc(-c2cn3c(n2)-c2ccc(N4CCC[C@H]4C4CCN(C(C)C)CC4)cc2OCC3)n(C(C)C)n1 has an IC50 of 20.3 nM.
In the case of Cc1nc(-c2cn3c(n2)-c2ccc(OC4(CC(C)C)CN(C(C)C)C4)cc2OCC3)n(C(C)C)n1, the IC50 is reported as 278 nM.
Cc1nc(-c2cn3c(n2)-c2ccc(N4CCC4C4CCN(C)CC4)cc2OCC3)n(C(C)C)n1 (centres undefined) was tested, and the IC50 was 21.5 nM and 45.4 nM and 11.8 nM.
CC(C)n1ncnc1-c1cn2c(n1)-c1ccc(-c3ccccc3S(N)(=O)=O)cc1OCC2 gave an IC50 of 242 nM.
Molecule Cc1nc(-c2cn3c(n2)-c2cc([C@H](C)N4CCN(C(C)C)CC4)c(C)cc2OCC3)n(C(C)C)n1 has an IC50 of 8.81 nM.
Cc1nc(-c2cn3c(n2)-c2cc(-c4ccnn4[C@@H]4CCCN(C(C)C)C4)c(F)cc2OCC3)n(C(C)C)n1 gave an IC50 of 11.4 nM.
With Cc1nc(-c2cn3c(n2)-c2ccc(-c4cn[nH]c4C4CCCN(C(C)C)C4)cc2OCC3)n(C(C)C)n1 (centres undefined) the IC50 was 22.9 nM and 7.46 nM.
With Cc1nc(-c2cn3c(n2)-c2ccc(-c4cnn(C)c4C4CC(N(C)C(C)C)CCO4)cc2OCC3)n(C(C)C)n1 (centres undefined) the IC50 was 219 nM and 49.8 nM and 81.2 nM.
For CCN1CCN(C(C)c2cc3c(cc2F)OCCn2cc(-c4nc(C)nn4C(C)C)nc2-3)CC1 (centres undefined), the IC50 was 86.8 nM.
Cc1nc(-c2cn3c(n2)-c2ccc(-c4cnn(C)c4C4CCCN(C(C)(C)CO)C4)cc2OCC3)n(C(C)C)n1 (centres undefined) was tested, and the IC50 was 30.9 nM and 92.2 nM and 32 nM.
Cc1nc(-c2cn3c(n2)-c2cc(C(C)N4CCN(C)CC4)c(F)cc2OCC3)n(C(C)C)n1 (centres undefined) showed an IC50 of 49.1 nM.
For Cc1nc(-c2cn3c(n2)-c2cnc(N4CCCC4C4CCCCN4C)cc2OCC3)n(CC(F)(F)F)n1 (centres undefined), the IC50 was 1.85 nM and 1.9 nM.
Cc1nc(-c2cn3c(n2)-c2ccc(-c4cnn(C)c4C4CCCCN4CC(C)(C)O)cc2OCC3)n(C(C)C)n1 (centres undefined) gave an IC50 of 11.2 nM.
For Cc1nc(-c2cn3c(n2)-c2ccc(OC4(CC5CC5)CN(C(C)C)C4)cc2OCC3)n(C(C)C)n1, the IC50 was 70.7 nM.
In the case of Cc1nc(-c2cn3c(n2)-c2ccc(OC4(C)CNC4)cc2OCC3)n(C(C)C)n1, the IC50 is reported as 6.2 nM.
Cc1nc(-c2cn3c(n2)-c2ccc(-c4ccnn4C4CCN(C(C)C)CC4)cc2OCC3)n(C(C)C)n1 showed an IC50 of 33.4 nM.
For Cc1nc(-c2cn3c(n2)-c2ccc(-c4cnn(C)c4N4CCN(C)[C@H](C(C)C)C4)cc2OCC3)n(C(C)C)n1, the IC50 was 2.34 nM.
In the case of CC(C)n1ncnc1-c1cn2c(n1)-c1cc([S+]([O-])C3CCN(C(C)(C)C)CC3)ccc1OCC2 (centres undefined), the IC50 is reported as 149 nM.
In the case of Cc1nc(-c2cn3c(n2)-c2ccc(-c4ccnn4C4CCCN(C5(C)COC5)C4)cc2OCC3)n(C(C)C)n1 (centres undefined), the IC50 is reported as 44.3 nM.
Molecule Cc1nc(-c2cn3c(n2)-c2cc(-c4ccnn4[C@H]4CCCN(C5COC5)C4)c(F)cc2OCC3)n(C(C)C)n1 has an IC50 of 207 nM.
For Cc1nc(-c2cn3c(n2)-c2ccc(OC4(CC5CC5)CNC4)cc2OCC3)n(C(C)C)n1, the IC50 was 69.3 nM.
Cc1nc(-c2cn3c(n2)-c2ccc(N4CCCC45CCCN(C)C5)cc2OCC3)n(C(C)C)n1 (centres undefined) was tested, and the IC50 was 12.9 nM and 5.23 nM and 16.8 nM.
With Cc1nc(-c2cn3c(n2)-c2cc([C@H](C)N4CCN(CC(C)(C)O)CC4)c(F)cc2OCC3)n(C(C)C)n1 the IC50 was 724 nM.
For CC(C)n1ncnc1-c1cn2c(n1)-c1cnc(N3CCCC3CN3CCCC3)cc1OCC2 (centres undefined), the IC50 was 12.9 nM.
Work on Cc1nc(-c2cn3c(n2)-c2ccc(OC4(c5ccccc5)CN(C(C)C)C4)cc2OCC3)n(C(C)C)n1 yielded an IC50 of 105 nM.
Work on Cc1nc(-c2cn3c(n2)-c2cc([C@@H](C)N4CCN(C(C)C)CC4)c(F)cc2OCC3)n(C(C)C)n1 yielded an IC50 of 169 nM.
Molecule Cc1nc(-c2cn3c(n2)-c2cc(-c4cnn(C)c4C4CC(N(C)C)CCO4)c(F)cc2OCC3)n(C(C)C)n1 (centres undefined) has an IC50 of 9.57 nM.
With Cc1nc(-c2cn3c(n2)-c2ccc(N4CCCC4CN(C)C)cc2OCC3)n(C(C)C)n1 (centres undefined) the IC50 was 14 nM and 6.62 nM.
In the case of Cc1nc(-c2cn3c(n2)-c2ccc(N4CCCC4C4CCN(CC(C)(C)O)CC4)cc2OCC3)n(C(C)C)n1 (centres undefined), the IC50 is reported as 74.8 nM and 49.2 nM.
Cc1nc(-c2cn3c(n2)-c2cc([C@H](C)N4CCN(C(C)(C)C)CC4)c(C)cc2OCC3)n(C(C)C)n1 gave an IC50 of 24.1 nM.
For Cc1nc(-c2cn3c(n2)-c2cc([C@H](C)N4CCN(C(C)(C)C)CC4)c(F)cc2OCC3)n(C(C)C)n1, the IC50 was 247 nM.
With Cc1nc(-c2cn3c(n2)-c2ccc(-c4ncnn4C4CCN(C(C)(C)C)CC4)cc2OCC3)n(C(C)C)n1 the IC50 was 837 nM.
Work on Cc1nc(-c2cn3c(n2)-c2cc(C(=O)N4CCN(C(C)(C)C)CC4)c(F)cc2OCC3)n(C(C)C)n1 yielded an IC50 of 191 nM.
For Cc1nc(-c2cn3c(n2)-c2ccc(-n4ccnc4C4CCCN(C(C)C)C4)cc2OCC3)n(C(C)C)n1 (centres undefined), the IC50 was 125 nM.
With COc1cc2c(cc1[C@H](C)N1CCN(C(C)(C)C)CC1)-c1nc(-c3nc(C)nn3C(C)C)cn1CCO2 the IC50 was 62 nM and 90.9 nM.
Molecule Cc1nc(-c2cn3c(n2)-c2cnc(-c4cnn(C)c4C4CCCN(C(C)C)C4)cc2OCC3)n(C(C)C)n1 (centres undefined) has an IC50 of 9.19 nM.
In the case of Cc1nc(-c2cn3c(n2)-c2cc(-c4cnn(C)c4C4CCCN(C(C)C)C4)c(F)cc2OCC3)n(C(C)C)n1 (centres undefined), the IC50 is reported as 20 nM and 105 nM.
Cc1nc(-c2cn3c(n2)-c2ccc(-c4cnn(C)c4C4CCCN(C(C)C)C4)cc2OCC3)n(C(C)C)n1 (centres undefined) gave an IC50 of 57.7 nM.
Cc1nc(-c2cn3c(n2)-c2ccc(-c4cnn(C)c4[C@@H]4CCCN(C(C)C)C4)cc2OCC3)n(C(C)C)n1 was tested, and the IC50 was 58.8 nM.
Cc1nc(-c2cn3c(n2)-c2ccc(-c4cnn(C(C)C)c4CN4CCN(C(C)(C)C)CC4)cc2OCC3)n(C(C)C)n1 gave an IC50 of 111 nM.
Cc1nc(-c2cn3c(n2)-c2cc(C(O)C4CCN(C)CC4)ccc2OCC3)n(C(C)C)n1 (centres undefined) showed an IC50 of 193 nM.
CC(C)n1nc(N)nc1-c1cn2c(n1)-c1ccc(-c3ccnn3C3CCN(C)CC3)cc1OCC2 was tested, and the IC50 was 38.5 nM.
With CC(C)n1nc(CO)nc1-c1cn2c(n1)-c1ccc(-c3ccnn3C3CCN(C)CC3)cc1OCC2 the IC50 was 38.5 nM.
Cc1nc(-c2cn3c(n2)-c2ccc(-c4ccnn4C4CCCN(C(C)(C)CO)C4)cc2OCC3)n(C(C)C)n1 (centres undefined) was tested, and the IC50 was 14.4 nM.
Molecule Cc1nc(-c2cn3c(n2)-c2cc([C@@H](C)N4CCN(C(C)C)CC4)c(C)cc2OCC3)n(C(C)C)n1 has an IC50 of 90 nM.
